Holding throughout (format): biochemical
One assay has as its target T1, Bmx(h) (Homo sapiens, UniProt P51813).
T1 construct: purchased Upstate Biotechnology (Dundee, UK), KinaseProfiler service
T1 sequence (P51813 1-675): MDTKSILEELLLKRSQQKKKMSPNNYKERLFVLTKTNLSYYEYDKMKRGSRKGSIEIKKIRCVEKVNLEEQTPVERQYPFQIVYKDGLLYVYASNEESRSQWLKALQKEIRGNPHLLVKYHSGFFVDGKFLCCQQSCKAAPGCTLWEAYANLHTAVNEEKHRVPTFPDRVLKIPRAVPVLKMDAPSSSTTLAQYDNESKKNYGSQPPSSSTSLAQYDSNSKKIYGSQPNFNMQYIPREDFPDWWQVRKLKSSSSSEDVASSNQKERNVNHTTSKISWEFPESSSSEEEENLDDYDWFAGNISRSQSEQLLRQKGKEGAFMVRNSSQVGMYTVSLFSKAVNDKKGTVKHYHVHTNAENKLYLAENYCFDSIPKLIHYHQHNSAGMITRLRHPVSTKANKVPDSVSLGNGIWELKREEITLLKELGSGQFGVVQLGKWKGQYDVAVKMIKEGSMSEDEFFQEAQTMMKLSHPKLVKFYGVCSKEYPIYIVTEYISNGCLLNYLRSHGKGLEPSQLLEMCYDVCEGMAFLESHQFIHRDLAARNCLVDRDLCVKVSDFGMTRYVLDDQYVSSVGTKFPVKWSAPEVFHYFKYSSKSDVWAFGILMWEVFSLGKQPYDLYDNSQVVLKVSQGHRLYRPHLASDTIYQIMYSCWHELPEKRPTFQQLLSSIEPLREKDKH
Put plainly: Upstate KinaseProfiler enzyme assay, Bmx. The following applies: 500 nM compound; read-out: Percent inhibition at 500 nM Bmx(h). In outline:
(§1)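 Kinase diluent: MOPS 20 mM (pH 7.0), EDTA 1 mM, β-ME 0.1%, Brij-35 0.01%, glycerol 5%, BSA 1 mg/ml; enzymes made up at 10× working strength. Substrates dissolved and diluted in deionised water.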

For the next assay, the target named is T2, Flt 4(h) (Homo sapiens, UniProt P35916).
T2 construct: purchased Upstate Biotechnology (Dundee, UK), KinaseProfiler service
Put plainly: Upstate KinaseProfiler enzyme assay, Flt 4. The following applies: 500 nM compound; read-out: Percent inhibition at 500 nM Flt 4(h). As for the experimental part: (§2) Further enzyme assays were conducted at Upstate Biotechnology (Dundee, UK) in the KinaseProfiler™ Assay system.
(§3) The general protocol is as follows. All kinases are pre-diluted to a 10× working concentration prior to addition into the assay. The composition of the dilution buffer for the kinases is 20 mM MOPS pH 7.0, 1 mM EDTA, 0.1% β-mercaptoethanol, 0.01% Brij-35, 5% glycerol, 1 mg/ml BSA. All substrates are dissolved and diluted to working stocks in de-ionised water.

For another assay, the target named is T3, human JAK2 (Homo sapiens, UniProt O60674).
T3 construct: The kinase domain of human JAK2 was amplified; GST (N); made in house; host or cells: Sf9 insect cells (baculovirus)
Description: Alphascreen tyrosine kinase enzyme assay, JAK2 kinase domain. Conditions: read-out: JAK2 IC50_nM. In outline: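 JAK2 kinase domain expressed in baculovirus/Sf9 and glutathione-affinity purified. Compounds (final […]) pre-incubated 20 min with enzyme in 10 mM HEPES pH 7.5, MgCl2, NaCl, vanadate, 0.1% Tween 20.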
In general terms: Bead proximity is the source of the signal in Alpha formats.

For the next assay, the target named is T4, KDR(h) (Homo sapiens, UniProt P35968).
T4 construct: purchased Upstate Biotechnology (Dundee, UK), KinaseProfiler service
Description: Upstate KinaseProfiler enzyme assay, KDR. Conditions: 500 nM compound; read-out: Percent inhibition at 500 nM KDR(h). Summed up: as §1

In another assay the target is T5, Flt 1(h) (Homo sapiens, UniProt P17948).
T5 construct: purchased Upstate Biotechnology (Dundee, UK), KinaseProfiler service
Put plainly: Upstate KinaseProfiler enzyme assay, Flt 1. Conditions: 500 nM compound; read-out: Percent inhibition at 500 nM Flt 1(h). As to the method: as §2, §3

The next assay deals with T6, Blk(m) (Mus musculus, UniProt P16277).
T6 construct: purchased Upstate Biotechnology (Dundee, UK), KinaseProfiler service
Put plainly: Upstate KinaseProfiler enzyme assay, Blk. The following applies: 500 nM compound; read-out: Percent inhibition at 500 nM Blk(m). In outline:
as §1

The next assay deals with T7, BTK(h) (Homo sapiens, UniProt Q06187).
T7 construct: purchased Upstate Biotechnology (Dundee, UK), KinaseProfiler service
Put plainly: Upstate KinaseProfiler enzyme assay, BTK. Conditions: 500 nM compound; read-out: Percent inhibition at 500 nM BTK(h). In outline:
as §1

The structures appear in SMILES notation.

As a reminder, the inhibition is the change of the read-out against control, counted positive when it falls.

T6 sequence (P16277 whole entry): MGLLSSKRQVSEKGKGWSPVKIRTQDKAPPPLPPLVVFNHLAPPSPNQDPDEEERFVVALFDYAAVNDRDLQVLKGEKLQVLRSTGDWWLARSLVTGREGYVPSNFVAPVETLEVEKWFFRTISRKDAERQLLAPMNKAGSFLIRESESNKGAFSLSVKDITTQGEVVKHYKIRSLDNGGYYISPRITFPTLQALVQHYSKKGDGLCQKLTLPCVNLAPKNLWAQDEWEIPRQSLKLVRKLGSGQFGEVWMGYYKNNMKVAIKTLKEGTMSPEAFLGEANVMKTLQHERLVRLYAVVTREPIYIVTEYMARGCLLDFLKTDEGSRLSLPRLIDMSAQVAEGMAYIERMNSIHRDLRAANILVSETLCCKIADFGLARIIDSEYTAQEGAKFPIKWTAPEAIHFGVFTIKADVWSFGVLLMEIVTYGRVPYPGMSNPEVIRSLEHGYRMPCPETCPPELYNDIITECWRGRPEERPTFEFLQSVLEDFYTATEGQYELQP
T4 sequence (P35968 20-1356): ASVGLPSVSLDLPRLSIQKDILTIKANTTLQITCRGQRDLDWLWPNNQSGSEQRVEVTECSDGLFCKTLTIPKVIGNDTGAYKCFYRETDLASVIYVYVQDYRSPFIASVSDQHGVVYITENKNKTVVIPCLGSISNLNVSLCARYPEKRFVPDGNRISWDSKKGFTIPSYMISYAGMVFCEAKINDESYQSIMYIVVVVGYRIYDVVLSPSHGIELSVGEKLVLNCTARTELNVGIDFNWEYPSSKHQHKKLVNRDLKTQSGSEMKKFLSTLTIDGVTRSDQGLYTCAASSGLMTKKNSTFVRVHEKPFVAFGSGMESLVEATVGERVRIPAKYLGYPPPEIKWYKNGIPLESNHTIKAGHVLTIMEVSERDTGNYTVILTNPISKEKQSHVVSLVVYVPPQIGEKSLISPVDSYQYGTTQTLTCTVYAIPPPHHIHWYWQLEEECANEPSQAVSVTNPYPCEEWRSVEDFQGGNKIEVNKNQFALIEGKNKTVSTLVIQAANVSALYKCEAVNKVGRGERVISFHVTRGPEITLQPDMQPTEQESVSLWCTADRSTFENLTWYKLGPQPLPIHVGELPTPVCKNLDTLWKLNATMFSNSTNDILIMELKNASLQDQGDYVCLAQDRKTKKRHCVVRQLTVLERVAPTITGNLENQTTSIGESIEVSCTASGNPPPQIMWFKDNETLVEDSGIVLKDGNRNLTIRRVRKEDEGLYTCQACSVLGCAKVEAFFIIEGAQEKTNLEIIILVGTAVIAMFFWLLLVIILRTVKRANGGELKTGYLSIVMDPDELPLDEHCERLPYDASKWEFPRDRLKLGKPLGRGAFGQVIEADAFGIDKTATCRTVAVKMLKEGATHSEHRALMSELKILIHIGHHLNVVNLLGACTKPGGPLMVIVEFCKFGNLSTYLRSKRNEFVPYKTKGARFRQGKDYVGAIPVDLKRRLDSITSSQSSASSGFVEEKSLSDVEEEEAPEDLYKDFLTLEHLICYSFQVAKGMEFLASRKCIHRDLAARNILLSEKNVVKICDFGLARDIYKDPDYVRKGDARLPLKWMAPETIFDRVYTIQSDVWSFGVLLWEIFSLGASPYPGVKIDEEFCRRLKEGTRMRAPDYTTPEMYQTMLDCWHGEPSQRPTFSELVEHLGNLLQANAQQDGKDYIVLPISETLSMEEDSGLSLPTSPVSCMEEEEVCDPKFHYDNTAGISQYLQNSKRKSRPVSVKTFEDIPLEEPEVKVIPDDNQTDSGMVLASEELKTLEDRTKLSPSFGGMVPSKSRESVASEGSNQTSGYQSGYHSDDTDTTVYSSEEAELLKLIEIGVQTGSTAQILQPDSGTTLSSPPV
T3 sequence (O60674 849-1124 limits assumed): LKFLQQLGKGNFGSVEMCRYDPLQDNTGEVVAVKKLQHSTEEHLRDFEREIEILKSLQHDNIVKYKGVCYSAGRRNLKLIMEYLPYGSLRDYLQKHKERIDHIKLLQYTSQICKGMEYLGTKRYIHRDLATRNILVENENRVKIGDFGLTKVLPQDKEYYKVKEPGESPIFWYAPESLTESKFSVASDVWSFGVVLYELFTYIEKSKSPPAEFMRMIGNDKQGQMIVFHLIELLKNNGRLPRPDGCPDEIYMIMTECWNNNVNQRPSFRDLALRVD
T5 sequence (P17948 27-1338): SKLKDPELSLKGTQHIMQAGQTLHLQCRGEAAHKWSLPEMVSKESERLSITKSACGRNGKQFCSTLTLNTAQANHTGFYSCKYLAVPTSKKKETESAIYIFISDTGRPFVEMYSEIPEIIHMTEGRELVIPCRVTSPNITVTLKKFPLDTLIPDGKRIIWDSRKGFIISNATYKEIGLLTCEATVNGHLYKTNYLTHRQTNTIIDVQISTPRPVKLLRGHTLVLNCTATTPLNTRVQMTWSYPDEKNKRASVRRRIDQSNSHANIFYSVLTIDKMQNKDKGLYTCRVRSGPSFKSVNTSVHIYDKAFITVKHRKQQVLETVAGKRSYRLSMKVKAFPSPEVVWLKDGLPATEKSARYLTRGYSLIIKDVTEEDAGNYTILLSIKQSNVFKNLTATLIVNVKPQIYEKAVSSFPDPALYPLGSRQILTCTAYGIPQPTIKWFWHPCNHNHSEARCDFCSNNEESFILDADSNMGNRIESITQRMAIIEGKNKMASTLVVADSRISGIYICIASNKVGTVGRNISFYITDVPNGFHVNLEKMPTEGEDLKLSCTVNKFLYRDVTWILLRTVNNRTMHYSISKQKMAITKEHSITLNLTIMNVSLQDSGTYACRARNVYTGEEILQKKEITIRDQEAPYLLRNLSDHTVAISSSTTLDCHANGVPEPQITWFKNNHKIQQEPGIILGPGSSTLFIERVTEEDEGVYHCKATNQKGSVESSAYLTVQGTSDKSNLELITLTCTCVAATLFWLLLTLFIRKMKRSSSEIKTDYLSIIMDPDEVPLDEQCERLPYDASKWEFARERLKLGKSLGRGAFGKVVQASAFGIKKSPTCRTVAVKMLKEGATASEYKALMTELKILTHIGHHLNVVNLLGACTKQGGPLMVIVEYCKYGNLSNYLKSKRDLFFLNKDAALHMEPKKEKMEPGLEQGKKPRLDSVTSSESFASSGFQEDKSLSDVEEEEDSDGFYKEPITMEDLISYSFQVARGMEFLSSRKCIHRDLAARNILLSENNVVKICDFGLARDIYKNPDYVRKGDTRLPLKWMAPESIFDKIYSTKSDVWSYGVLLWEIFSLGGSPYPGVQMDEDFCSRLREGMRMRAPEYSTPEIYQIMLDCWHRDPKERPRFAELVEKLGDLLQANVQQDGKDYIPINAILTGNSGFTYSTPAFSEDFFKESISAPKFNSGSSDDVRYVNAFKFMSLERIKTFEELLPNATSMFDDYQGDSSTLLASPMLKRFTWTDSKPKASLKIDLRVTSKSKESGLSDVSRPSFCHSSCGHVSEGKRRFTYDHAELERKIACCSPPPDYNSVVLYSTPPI
T7 sequence (Q06187 whole entry): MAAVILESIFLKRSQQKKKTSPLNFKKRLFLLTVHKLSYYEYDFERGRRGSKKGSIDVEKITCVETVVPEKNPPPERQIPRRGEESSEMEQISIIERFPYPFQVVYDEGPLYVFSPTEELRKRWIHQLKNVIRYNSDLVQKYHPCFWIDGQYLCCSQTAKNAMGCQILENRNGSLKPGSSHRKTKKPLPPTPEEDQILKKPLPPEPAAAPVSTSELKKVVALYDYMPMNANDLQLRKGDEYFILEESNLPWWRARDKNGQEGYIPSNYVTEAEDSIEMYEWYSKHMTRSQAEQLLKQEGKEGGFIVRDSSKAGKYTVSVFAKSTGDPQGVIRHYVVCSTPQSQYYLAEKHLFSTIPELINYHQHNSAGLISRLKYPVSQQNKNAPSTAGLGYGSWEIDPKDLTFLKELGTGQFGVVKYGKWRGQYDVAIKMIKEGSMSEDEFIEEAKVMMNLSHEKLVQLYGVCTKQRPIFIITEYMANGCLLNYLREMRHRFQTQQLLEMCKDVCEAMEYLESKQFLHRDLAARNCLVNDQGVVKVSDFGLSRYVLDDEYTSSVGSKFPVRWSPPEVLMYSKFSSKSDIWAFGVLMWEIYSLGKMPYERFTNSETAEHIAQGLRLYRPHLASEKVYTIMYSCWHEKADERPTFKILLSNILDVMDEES

As for `C=CC(=O)Nc1ccc(Sc2nc(Nc3cccc(NS(C)(=O)=O)c3)ncc2C)cc1` [Compound 288, N-(4-(5-methyl-2-(3-(methylsulfonamido)phenylao)pyrimidin-4-ylthio)phenyl)acrylamide], the inhibition at 0.5 µM on Bmx(h) worked out at 100%; on Flt 4(h), 100%; at KDR(h), 94%; at Flt 1(h), 100%; at Blk(m), 99%; at BTK(h), 98%. Besides, on human JAK2, the IC50 was more than 1000 nM.
As to `C=CC(=O)N(C)c1ccc(Sc2nc(Nc3ccc(N4CCOCC4)cc3)ncc2C)cc1` [Compound 173, N-methyl-N-(4-(5-methyl-2-(4-morpholinophenylao)pyrimidin-4-ylthio)phenyl)acrylamide], the inhibition at 0.5 µM on Bmx(h) worked out at 94%; on Flt 4(h) it was 98%; at KDR(h), 96%; at Flt 1(h), 95%; on Blk(m) it was 93%; on BTK(h), 93%. The IC50 at human JAK2 was less than 500 nM.
`C=CC(=O)Nc1ccc(Sc2nc(Nc3ccc(N4CCOCC4)c(OC)c3)ncc2C)cc1` [Compound 248, N-(4-(2-(3-methoxy-4-morpholinophenylao)-5-methylpyrimidin-4-ylthio)phenyl)acrylamide]: the inhibition at 0.5 µM stood at 91% at Bmx(h); 100% on Flt 4(h); 95% on KDR(h); 95% at Flt 1(h); 92% at Blk(m); 80% at BTK(h). Besides, the IC50 on human JAK2 is more than 1000 nM.
On to `C=CC(=O)Nc1ccc(Sc2ccnc(Nc3ccc(S(N)(=O)=O)c(OC)c3)n2)cc1` [Compound 374, N-(4-(2-(3-methoxy-4-sulfamoylphenylao)pyrimidin-4-ylthio)phenyl)acrylamide], for which the inhibition at 0.5 µM worked out at 91% at Bmx(h); 100% at Flt 4(h); 96% at KDR(h); 100% at Flt 1(h); 96% at Blk(m); 96% on BTK(h). Also, the IC50 at human JAK2 was more than 1000 nM.
With `Cc1cnc(Nc2ccc(N3CCOCC3)cc2)nc1Sc1ccc(N2C(=O)CSCC2=O)cc1` [Compound 231, 4-(4-(5-methyl-2-(4-morpholinophenylao)pyrimidin-4-ylthio)phenyl)thiomorpholine-3,5-dione], the inhibition at 0.5 µM at Bmx(h) amounted to 99%; at Flt 4(h) it was 100%; on KDR(h), 99%; on Flt 1(h), 95%; on Blk(m) it was 82%; on BTK(h) it was 91%. Further, on human JAK2, the IC50 was more than 1000 nM.
On to `C=CC(=O)Nc1ccc(Sc2nc(Nc3ccc(OCCN4CCOCC4)cc3)ncc2C)cc1` [Compound 290, N-(4-(5-methyl-2-(4-(2-morpholinoethoxy)phenylao)pyrimidin-4-ylthio)phenyl)acrylamide], for which the inhibition at 0.5 µM at Bmx(h) is 97%; on Flt 4(h), 100%; on KDR(h) it was 95%; at Flt 1(h), 100%; on Blk(m), 97%; at BTK(h), 94%. The IC50 at human JAK2 is more than 1000 nM.
Regarding `C=CC(=O)Nc1ccc(Sc2nc(Nc3ccc(OC)c(NS(C)(=O)=O)c3)ncc2C)cc1` [Compound 293, N-(4-(2-(4-methoxy-3-(methylsulfonamido)phenylao)-5-methylpyrimidin-4-ylthio)phenyl)acrylamide], the inhibition at 0.5 µM at Bmx(h) was 79%; on Flt 4(h) it was 100%; on KDR(h), 95%; on Flt 1(h), 79%; on Blk(m), 30%; on BTK(h) it was 55%. For the same compound, the IC50 on human JAK2 was more than 1000 nM.
On to `C=CC(=O)Nc1ccc(Sc2nc(Nc3ccc(C4CCN(C)CC4)cc3)ncc2C)cc1` [Compound 246, N-(4-(5-methyl-2-(4-(1-methylpiperidin-4-yl)phenylao)pyrimidin-4-ylthio)phenyl)acrylamide], for which the inhibition at 0.5 µM on Bmx(h) was determined as 98%; on Flt 4(h), 100%; at KDR(h), 93%; at Flt 1(h), 100%; on Blk(m) it was 97%; at BTK(h) it was 97%. Besides, the IC50 on human JAK2 was more than 1000 nM.
In the case of `N#Cc1nnn(Cc2ccc(Sc3ccnc(Nc4ccc(N5CCOCC5)cc4)n3)cc2)n1` [Compound 156, 2-(4-(2-(4-morpholinophenylao)pyrimidin-4-ylthio)benzyl)-2H-tetrazole-5-carbonitrile], the inhibition at 0.5 µM at Bmx(h) came to 83%; at Flt 4(h), 94%; on KDR(h) it was 97%; on Flt 1(h), 80%; on Blk(m) it was 41%; on BTK(h), 81%. Further, the IC50 on human JAK2 is more than 1000 nM.
Take `C=CC(=O)Nc1ccc(Sc2nc(Nc3ccc(OC)c(OC)c3)ncc2C)cc1` [Compound 241, N-(4-(2-(3,4-dimethoxyphenylao)-5-methylpyrimidin-4-ylthio)phenyl)acrylamide]: the inhibition at 0.5 µM at Bmx(h) came to 92%; on Flt 4(h) it was 100%; at KDR(h), 97%; at Flt 1(h), 100%; on Blk(m), 98%; on BTK(h) it was 88%. Besides, the IC50 at human JAK2 was more than 1000 nM.
`O=C(/C=C/Cl)Nc1cccc(Sc2ccnc(Nc3ccc(N4CCOCC4)cc3)n2)c1` [Compound 340, (E)-3-chloro-N-(3-(2-(4-morpholinophenylao)pyrimidin-4-ylthio)phenyl)acrylamide]: the inhibition at 0.5 µM on Bmx(h) worked out at 92%; at Flt 4(h) it was 95%; at KDR(h), 94%; on Flt 1(h), 100%; at Blk(m) it was 99%; at BTK(h), 97%. The IC50 at human JAK2 was more than 1000 nM.
On to `C=CC(=O)Nc1ccc(Sc2nc(Nc3cccc(N4CCN(C)CC4)c3)ncc2C)cc1` [Compound 243, N-(4-(5-methyl-2-(3-(4-methylpiperazin-1-yl)phenylao)pyrimidin-4-ylthio)phenyl)acrylamide], for which the inhibition at 0.5 µM on Bmx(h) came to 96%; at Flt 4(h) it was 100%; on KDR(h), 97%; on Flt 1(h) it was 100%; on Blk(m) it was 99%; on BTK(h), 97%. The IC50 on human JAK2 was more than 1000 nM.

Source of the values: patent US8846704B2, “Thiopyrimidine-based compounds and uses thereof” (YM Biosciences Austraila Pty Ltd, priority 2007, dated 2014).
